Literature values in PMC4826315 (Journal of molecular biology, 2016).

Columns and labels:
[1] = system: Mdm2; settings: read-out: IC50, inhibition of p53 binding to Mdm2; FP assay
[2] = system: retinoblastoma tumors; settings: mouse model system

In the case of `COc1ccc(C2=N[C@@H](c3ccc(Cl)cc3)[C@@H](c3ccc(Cl)cc3)N2C(=O)N2CCNC(=O)C2)c(OC(C)C)c1` [Nutlin-3a], the IC50 [1] is given as […] and the “effect on retinoblastoma tumors” value [2] is given as “caused regression of retinoblastoma tumors”.
